Results from patent publication US11999806B2, “Broad-spectrum polypeptide against enterovirus and application thereof” (WUHAN INSTITUTE OF VIROLOGY, CHINESE ACADEMY OF SCIENCES, priority 2018, dated 2024).
Several values for one entry are separate records, joined by “and”; a condition that tells them apart may be missing. Equal values may be shown once. Read-outs that look alike come from different tables or passages of the source. Non-standard residues stand in square brackets, D forms with d. Residues, ends and D or L forms follow the SMILES beside them. No end group written: not given here.

How the values were obtained:
[1] = system: EV71; assay: Anti-EV71 efficiency in 293T cells, viral RNA by qRT-PCR; format: cell-based, enterovirus 71; details: for antiviral effect of P2 variants as EV71 inhibitor, in words: FIG. 5, 293T cells, compared with P2
Experimental: • (1) 293T cells, Vero cells and Huh7.5 cells were plated in 24-well plates respectively. • (2) After the cells reached 70%-80% confluence, the MEM medium containing 10% serum was replaced with a MEM medium containing 2% serum (0.5 ml/well), and 5 μl of 10^6 PFU/mL EV71 virus per well was added. • (3) After 1 h, polypeptide P2 was added to different cells at a final concentration of 0.01 μM, 0.1 μM, 1 μM, 10 μM, and 50 μM, respectively. • (4) Samples were collected 24 hours after virus infection, and RNA was extracted with a total RNA extraction kit as follows. • (5) The supernatant in each well was discarded, then 350 μl of TRK Lysis Buffer was added to the well and the plate was shaken on the shaker for 5 minutes. • (6) 350 μl of 70% ethanol (DEPC-treated) was added to the well and the plate was shaken on the shaker for 5 minutes. • (7) The mixture in the well was transferred to a RNA extraction column and centrifuged at 12,000 g for 1 min. • (8) The solution collected in the recovery tube was added back to the column and centrifuged at 12,000 g for 1 min. • (9) RNA washing buffer 1 was added to the column and centrifuged at 12,000 g for 30 s. • (10) RNA washing buffer 2 was added to the column and centrifuged at 12,000 g for 1 min. • (11) Step (10) was repeated once. • (12) The empty column was centrifuged at 12,000 g for 2 min to completely remove residual RNA washing buffer. • (13) 50 μl DEPC-treated H2O was added to the column and centrifuge at 12,000 g for 2 min. • (14) 2 μl RNA sample was used according to one step qRT-PCR kit for fluorescence quantification experiment. […]

[2] = system: CVB5; assay: Anti-CVB5 effect in RD cells, qRT-PCR; format: cell-based, Coxsackievirus B5; details: Example 20, read-out: IC50 against CVB5
Experimental: • (1) […] were plated in a 24-well cell plate. • (2) After the cells reached 70%-80% confluence, the MEM medium containing 10% serum was replaced with a MEM medium containing 2% serum (0.5 ml/well).

[3] = system: CVA16; format: cell-based, Coxsackievirus A16; details: CCK-8; for IC50: read-out: IC50 against CVA16; for Virus inhibition rate (%): CVA16, RD cells, 24 h
[4] = system: EV71; assay: Anti-EV71 efficiency in Huh7.5 cells, viral RNA by qRT-PCR; format: cell-based, enterovirus 71; details: read-out: IC50 against EV71 by qRT-PCR
Source text: […]

[5] = system: CVA6; assay: Anti-CVA6 effect in Vero cells, qRT-PCR; format: cell-based, Coxsackievirus A6; details: for Virus inhibition rate (%): CVA6 MOI 0.01, Vero cells, 24 h, qRT-PCR
Experimental: • (1) Vero cells were plated in a 24-well cell plate. • (2) After the cells reached 70%-80% confluence, the MEM medium containing 10% serum was replaced with a MEM medium containing 2% serum and CVA6 virus, 0.5 ml per well. MOI of the virus was 0.01. The wells without CVA6 virus was set as control group. • (3) After 1 h, […], respectively. • (4) Samples were collected 24 hours after virus infection, and RNA was extracted with total RNA extraction kit as follows. • (5) The supernatant in the wells was discarded, then 350 μl of TRK Lysis Buffer was added to each well and the plate was shaken on the shaker for 5 minutes. • (6) 350 μl of 70% ethanol (DEPC-treated) was added to the well and the plate was shaken on the shaker for 5 minutes. • (7) The mixture in the well was transferred to a RNA extraction column and centrifuged at 12000 g for 1 min. • (8) The solution collected in the recovery tube was added back to the column and centrifuged at 12000 g for 1 min. • (9) RNA washing buffer 1 was added to the column and centrifuged at 12,000 g for 30 s. • (10) RNA washing buffer 2 was added to the column and centrifuged at 12,000 g for 1 min. • (11) Step (10) was repeated once. • (12) The column was centrifuged at 12,000 g for 2 min to completely remove residual RNA washing buffer. • (13) 50 μl DEPC-treated H2O was added to the column and centrifuge at 12,000 g for 2 min. • (14) 2 μl RNA sample was used according to one step qRT-PCR kit for fluorescence quantification experiment.

## CCCCCCCCCCCCCCCC(=O)NCCCC[C@H](NC(=O)CCOCCOCCOCCOCCNC(=O)[C@H](CCCCN)NC(=O)[C@H](C)NC(=O)[C@@H]1CCCN1C(=O)[C@@H](NC(=O)[C@@H](NC(=O)[C@H](Cc1c[nH]c2ccccc12)NC(=O)CNC(=O)[C@H](CCC(N)=O)NC(=O)[C@H](CCC(=O)O)NC(=O)[C@H](CCCNC(=N)N)NC(=O)[C@H](CS)NC(=O)[C@H](Cc1ccc(O)cc1)NC(=O)[C@H](CCC(N)=O)NC(=O)[C@H](CCCNC(=N)N)NC(=O)[C@@H](NC(=O)[C@H](CCC(=O)O)NC(=O)[C@@H](N)CCC(=O)O)C(C)C)[C@@H](C)CC)[C@@H](C)CC)C(=O)O [3A-EP-PEG4-PA]
[1]
  antiviral effect of P2 variants as EV71 inhibitor, in words: improved antiviral effect

## CC[C@@H](C)[C@@H](NC(=O)[C@H]1CCCN1C(C)=O)C(=O)N[C@@H](C(=O)N[C@H](Cc1c[nH]c2ccccc12)C(=O)NCC(=O)N[C@H](CCC(N)=O)C(=O)N[C@H](CCC(=O)O)C(=O)N[C@H](CCCNC(=N)N)C(=O)N[C@H](CS)C(=O)N[C@H](Cc1ccc(O)cc1)C(=O)N[C@H](CCC(N)=O)C(=O)N[C@H](CCCNC(=N)N)C(=O)N[C@@H](C(=O)N[C@H](CCC(=O)O)C(=O)N[C@H](CCC(=O)O)C(=O)N1CCC[C@@H]1C(=O)N1CCC[C@@H]1C(=O)N[C@H](CCCNC(=N)N)C(=O)N[C@H](CCCNC(=N)N)C(=O)N[C@H](CCCNC(=N)N)C(=O)N[C@H](CCC(N)=O)C(=O)N[C@H](CCCNC(=N)N)C(=O)N[C@H](CCCNC(=N)N)C(=O)N[C@H](CCCCN)C(=O)N[C@H](CCCCN)C(=O)N[C@H](CCCNC(=N)N)C(=O)NCC(=O)N[C@H](Cc1ccc(O)cc1)C(N)=O)C(C)C)[C@H](C)CC [3A-EP-DRI]
[1]
  antiviral effect of P2 variants as EV71 inhibitor, in words: improved antiviral effect

## YGRKKRRQRRRGSGEAVREYCK [BP8]
[2]
  IC50: 1.54 µM

## RRRRRRRREEVRQYCRDQ [P2]
[1]; 293T cells, read-out: IC50 against EV71 by qRT-PCR
  IC50: 9.68 µM
[3]; RD cells
  IC50: 1.53 µM
[4]
  IC50: 1.84 µM

## CC(=O)N[C@H](CCCNC(=N)N)C(=O)N[C@H](CS)C(=O)N[C@H](Cc1ccc(O)cc1)C(=O)N[C@H](CCC(N)=O)C(=O)N[C@H](CCCNC(=N)N)C(=O)N[C@@H](C(=O)N[C@H](CCC(=O)O)C(=O)N[C@H](CCC(=O)O)C(=O)N1CCC[C@@H]1C(=O)N1CCC[C@@H]1C(=O)N[C@H](CCCNC(=N)N)C(=O)N[C@H](CCCNC(=N)N)C(=O)N[C@H](CCCNC(=N)N)C(=O)N[C@H](CCC(N)=O)C(=O)N[C@H](CCCNC(=N)N)C(=O)N[C@H](CCCNC(=N)N)C(=O)N[C@H](CCCCN)C(=O)N[C@H](CCCCN)C(=O)N[C@H](CCCNC(=N)N)C(=O)NCC(=O)N[C@H](Cc1ccc(O)cc1)C(N)=O)C(C)C [ER-DRI] (Ac-[dR][dC][dY][dQ][dR][dV][dE][dE][dP][dP][dR][dR][dR][dQ][dR][dR][dK][dK][dR]G[dY]-NH2)
[5]; 0.625 μM
  Virus inhibition rate (%): 71.8% and 74.9% and 67.5%
[5]; 2.15 μM
  Virus inhibition rate (%): 72.6% and 85.3% and 90.4%
[5]; 2.5 μM
  Virus inhibition rate (%): 91.3% and 93.4% and 91.7%
[5]; 5 μM
  Virus inhibition rate (%): 94.3% and 94.9% and 96.4%
[5]; 10 μM
  Virus inhibition rate (%): 91.4% and 97.8% and 97.9%
[5]; Vero cells
  effect on CVA6 replication, in words: able to inhibit the replication of CVA6
[5]; Vero cells, read-out: IC50 against CVA6
  IC50: < 0.625 µM
[3]; 0.15625 μM
  Virus inhibition rate (%): 7.885% and 3.667% and 8.802%
[3]; 0.3125 μM
  Virus inhibition rate (%): 12.1% and 11.19% and 21.45%
[3]; 0.625 μM
  Virus inhibition rate (%): 15.77% and 13.75% and 27.14%
[3]; 1.25 μM
  Virus inhibition rate (%): 59.05% and 58.86% and 50.79%
[3]; 2.5 μM
  Virus inhibition rate (%): 93.52% and 84.17% and 77.93%
[3]; 5 μM
  Virus inhibition rate (%): 104.7% and 107.3% and 106.2%
[3]; RD cells
  effect on CVA16, in words: can significantly inhibit CVA16
  IC50: 0.856 µM

## YGRKKRRQRRRGSGEEVRQYCR [ER]
[3]; RD cells
  IC50: 3.21 µM
